In PMC2849157 (Bioorganic & medicinal chemistry letters, 2010):

Assays:
HIV = test: anti-HIV activity, cellular assay; format: cell-based, human immunodeficiency virus 1 (HIV); settings: for EC50: Human immunodeficiency virus 1, MT2, read-out: EC50, anti-HIV activity; for antiviral activity: in words
MT-2 = test: cytotoxicity; format: cell-based, human; settings: MT-2 cellular assay
HCV = test: anti-HCV activity; format: cell-based; settings: Hepatitis C virus, read-out: EC50, anti-HCV activity
[1] = test system: herpes simplex virus-1 (HSV-1); test: effect on replication of HSV-1; format: cell-based
HSV-2 = test: effect on replication of HSV-2; format: cell-based
hepatitis B virus (HBV) = test: effect on replication of HBV; format: cell-based

Row | SMILES | EC50 (HIV) | EC50 (HCV) | antiviral activity (HIV) | other results
1 | O=C(O)c1cc(NC(=O)c2cc3c(OCc4ccccc4)c(c2)Cc2cc(C(=O)Nc4cc(C(=O)O)cc(C(=O)O)c4)cc(c2OCc2ccccc2)Cc2cc(C(=O)Nc4cc(C(=O)O)cc(C(=O)O)c4)cc(c2OCc2ccccc2)Cc2cc(C(=O)Nc4cc(C(=O)O)cc(C(=O)O)c4)cc(c2OCc2ccccc2)C3)cc(C(=O)O)c1 [Compound 11] | 300 nM | 1400 nM | – | ID50 (toxicity) (MT-2): 18000 nM
2 | O=C(O)c1cc(NC(=O)c2cc3c(O)c(c2)Cc2cc(C(=O)Nc4cc(C(=O)O)cc(C(=O)O)c4)cc(c2O)Cc2cc(C(=O)Nc4cc(C(=O)O)cc(C(=O)O)c4)cc(c2O)Cc2cc(C(=O)Nc4cc(C(=O)O)cc(C(=O)O)c4)cc(c2O)C3)cc(C(=O)O)c1 [Compound 9] | 6700 nM | > 50000 nM | – | –
3 | CCCCOc1c2cc(C(=O)Nc3cc(C(=O)O)cc(C(=O)OCc4ccccc4)c3)cc1Cc1cc(C(=O)Nc3cc(C(=O)O)cc(C(=O)OCc4ccccc4)c3)cc(c1OCCCC)Cc1cc(C(=O)Nc3cc(C(=O)O)cc(C(=O)OCc4ccccc4)c3)cc(c1OCCCC)Cc1cc(C(=O)Nc3cc(C(=O)O)cc(C(=O)OCc4ccccc4)c3)cc(c1OCCCC)C2 [Compound 1] | – | – | little to no antiviral activity | –
4 | CCCCOc1c2cc(C(=O)Nc3cc(C(=O)O)cc(C(=O)NC4CCCCC4)c3)cc1Cc1cc(C(=O)Nc3cc(C(=O)O)cc(C(=O)NC4CCCCC4)c3)cc(c1OCCCC)Cc1cc(C(=O)Nc3cc(C(=O)O)cc(C(=O)NC4CCCCC4)c3)cc(c1OCCCC)Cc1cc(C(=O)Nc3cc(C(=O)O)cc(C(=O)NC4CCCCC4)c3)cc(c1OCCCC)C2 [Compound 3] | – | – | little to no antiviral activity | –
5 | CCCCOc1c2cc(C(=O)NCCN)cc1Cc1cc(C(=O)NCCN)cc(c1OCCCC)Cc1cc(C(=O)NCCN)cc(c1OCCCC)Cc1cc(C(=O)NCCN)cc(c1OCCCC)C2 [Compound 7] | – | – | lack of antiviral activity | –
6 | CCCCOc1c2cc(C(=O)Nc3cc(C(=O)O)cc(C(=O)O)c3)cc1Cc1cc(C(=O)Nc3cc(C(=O)O)cc(C(=O)O)c3)cc(c1OCCCC)Cc1cc(C(=O)Nc3cc(C(=O)O)cc(C(=O)O)c3)cc(c1OCCCC)Cc1cc(C(=O)Nc3cc(C(=O)O)cc(C(=O)O)c3)cc(c1OCCCC)C2 [Compound 2] | 300 nM | 1800 nM | – | potency against different laboratory HIV strains (HIV; HIV-IIIB, NL-43, LaiM184V): equally potent; antiviral activity in different cell lines (HIV; MT-2, CEMx174, TZM-bl): antiviral activity was retained in all these cell lines; effect on the replication of HSV-1 [1]: no effect; effect on the replication of HSV-2 (HSV-2): no effect; effect on the replication of HBV (hepatitis B virus (HBV)): no effect
